The values below come from patent publication US20050032908A1, “Methods for treating metabolic syndrome” (priority 2003, published 2005).

Each structure is given as a SMILES string. Where two headings read alike, the source gives them in different places.

For assay [1] the following is noted: cited from earlier work.
For assay [2] the following is noted: compared to placebo; cited from earlier work.
Assay [3] in a line: Pooled analysis of double-blind, placebo-controlled, non-diabetic studies of at least 6 months duration in subjects with metabolic syndrome at baseline. The assay is classed as in vivo, human. Particulars: compared to placebo; change from baseline to latest assessment after month 6 up to month 12. The text has this: (§1) The benefits of sibutramine therapy can be extended to subjects with metabolic syndrome. The treatment effect of sibutramine on subjects that had metabolic syndrome at study entry in the STORM trial and by a pooled analysis of double-blind, placebo-controlled, non-diabetic studies of at least 6 months duration were studied. Subjects were identified who had increased abdominal obesity (waist circumference), decreased HDL cholesterol, and elevated triglycerides (TG) at baseline, and who also completed at least 6 months of sibutramine treatment (pooled analysis subjects: 266 sibutramine, 134 placebo; STORM: 80 sibutramine). Since all subjects in the STORM trial received sibutramine for the first 6 months of the study, only subjects subsequently randomized to receive sibutramine for a longer duration were included. The analyses for each variable were based on change from baseline to latest assessment after month 6, up to and including month 12.

A short description of assay [4]: STORM trial subjects that had metabolic syndrome at study entry. The note with it: sibutramine treatment group, 80 subjects; change from baseline to latest assessment after month 6 up to month 12. The format is in vivo, human.
Text: as §1

Where [5] appears, read: subjects who lost and maintained weight, compared to the baseline values of all subjects.

For `CC(C)CC(N(C)C)C1(c2ccc(Cl)cc2)CCC1` (centres unmarked) [sibutramine, N,N-dimethyl-1-[1-(4-chlorophenyl)cyclobutyl]-3-methylbutylamine], in assay [1] (at the end of two years of treatment, placebo 21%), the “subjects who maintained ≧10% weight reduction” value is 46%. Moreover, the “subjects who maintained ≧5% weight reduction” value in assay [1] (at the end of two years of treatment, placebo 44%) is recorded as 69%. In addition, the “mean fasting insulin levels” value in assay [1] (at two years) is on record as “reduced”. In addition, the “subjects who completed the trial and maintained at least 80% of their month six weight loss” value in assay [1] (at two years, placebo 16%) is listed as 43%. Also, the mean weight loss in assay [1] (first six months, subjects achieving ≧5% weight reduction) is listed as 26 lbs. Also, the “subjects who achieved a ≧5% weight reduction” value in assay [1] (of the 499 subjects who completed the first six months, sibutramine with reduced calorie diet and increased physical activity) is recorded as 94%. Moreover, in assay [1] (setting [5]), the HDL cholesterol result is “clinically and statistically significant improvements”; the triglycerides entry is “clinically and statistically significant improvements”; the waist circumference entry was “clinically and statistically significant improvements”. Further, the impaired fasting glucose entry in assay [1] (two years) was “significantly changed”. In assay [2], the HDL cholesterol result is given as “significant improvements”, the “fasting blood glucose levels” value is reported as “not significantly changed”, the insulin levels result was “significant improvements” and the triglyceride levels result is reported as “significant improvements”. In addition, in assay [2], the “waist circumference (a measure for abdominal obesity)” value is recorded as “significant improvements”. Moreover, in assay [3], the HDL result was “clinically and statistically significant improvements”; the TG result is “clinically and statistically significant improvements”; the waist circumference entry was “clinically and statistically significant improvements”; the weight loss entry is “clinically and statistically significant improvements”. Moreover, in assay [4], the HDL entry is on record as “favorable changes”, the TG entry is “favorable changes”, the waist circumference result is on record as “favorable changes” and the weight loss result is listed as “favorable changes”.
